From patent US9457044B2, “Methods and compositions for wound healing” (CoDa Therapeutics, Inc., priority 2006, dated 2016) come the findings set out here.

This data set concerns Cx43 protein. As to the kind of experiment: Cx43 protein knockdown in confluent fibroblast cultures. It is filed as cell-based. To be noted: within two hours. The method, then:
Swiss 3T3 fibroblasts were grown in Dulbecco's modified Eagle's medium (DMEM; Gibco) supplemented with 10% fetal calf serum (Labtech) and 1% penicillinstreptomycin solution (Sigma, Poole) in a 5% CO2 incubator at 37° C. Unless otherwise stated, the cells were maintained in this medium for most experiments. The cells were passaged by trypsinization and used at passages 6-10 at a confluency of Z 90%. Cells were plated on 13 mm glass coverslips in 24-well dishes (Nunc) with 4−5×10^5 cells per well containing 1 ml of medium. Cells reached confluency after 72 hours and were then used for experimentation.
In order to knock down Cx43 expression in the fibroblasts the media was replaced with serum-free DMEM containing either 20 μM asODNs or 20 μM control sODNs. This was incubated for two hours before being replaced with serum containing DMEM. The wounding assay was then carried out as above.

Turning to “GTAATTGCGGCAGGAGGAATTGTTTCTGTC (antisense GTAATTGCGGCAGGAGGAATTGTTTCTGTC; in Pluronic F-127 gel, further chemistry not given here) [Cx43 asODN]”, the “knockdown of Cx43 protein” value is reported as 95%.
